Measured values as given in patent US20110301142A1, “ANTAGONISTS OF LYSOPHOSPHATIDIC ACID RECEPTORS” (priority 2008, published 2011).

What was measured:
human LPA3 = molecular target: T1, human LPA3 (Homo sapiens, UniProt Q9UBY5); assay: LPA3 calcium flux assay; assay type: cell-based; details: Human LPA3 expressing CHO cells, stimulated with 10 nM LPA; read-out: HLPA3 Ca Flux IC50
T1 construct: The full-length cDNA fragment for human LPA3 was obtained by PCR from the vector; expressed in transfected cells; cDNA from the Missouri S&T cDNA Resource Center
T1 sequence (Q9UBY5 1-353): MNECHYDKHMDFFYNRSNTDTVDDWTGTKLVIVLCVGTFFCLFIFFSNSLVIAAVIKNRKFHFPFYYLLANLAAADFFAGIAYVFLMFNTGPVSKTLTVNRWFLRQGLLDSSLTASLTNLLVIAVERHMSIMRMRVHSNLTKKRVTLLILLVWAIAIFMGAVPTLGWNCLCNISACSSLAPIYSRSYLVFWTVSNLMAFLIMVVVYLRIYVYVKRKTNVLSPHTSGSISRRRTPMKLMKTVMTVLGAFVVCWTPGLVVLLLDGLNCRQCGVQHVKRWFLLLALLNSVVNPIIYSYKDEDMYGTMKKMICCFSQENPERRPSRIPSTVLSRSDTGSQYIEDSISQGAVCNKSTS
Outline: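 Stably transfected CHO cells, serum-starved overnight, loaded with Calcium 4 dye 1 h at 37 °C in HBSS/20 mM Hepes with 0.3% fatty-acid-free HSA. Compounds preincubated 30 min at room temperature, then cells stimulated with 10 nM LPA; intracellular Ca2+ read by fluorescence; IC50 from titration curves.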

Female CD-1 mice = assay: Bleomycin-induced lung fibrosis model in mice; assay type: in vivo
Description: Female CD-1 mice (Harlan, 25-30 g) are housed 4 per cage, given free access to food and water and allowed to acclimate for at least 7 days prior to test initiation. After the habituation phase, mice are lightly anesthetized with isoflurane (5% in 100% O2) and administered with bleomycin sulfate (0.01-5 U/kg, Henry Schein) via intratracheal instillation (Cuzzocrea S et al. Am J Physiol Lung Cell Mol. Physiol. 2007 May; 292(5):L1095-104. Epub 2007 Jan. 12.). Mice are returned to their cages and monitored daily for the duration of the experiment. Test compound or vehicle is delivered po, ip or sc daily. The route and frequency of dosing is based on previously determined pharmacokinetic properties. All animals are sacrificed using inhaled isoflurane 3, 7, 14, 21 or 28 days after bleomycin instillation. Following sacrifice, mice are intubated with a 20 gauge angiocatheter attached to a 1 ml syringe. Lungs are lavaged with saline to obtain bronchoalveolar lavage fluid (BALF) and then removed and fixed in 10% neutral buffered formalin for subsequent histopathological analysis. BALF is centrifuged for 10 min at 800×g to pellet the cells and the cell supernatant removed and frozen at −80° C. for subsequent protein analysis using the DC protein assay kit (Biorad, Hercules, Calif.) and soluble collagen analysis using Sircol (Biocolor Ltd, UK). BALF is analyzed for concentrations of inflammatory, pro-fibrotic and tissue injury biomarkers including transforming growth factor β1, hyaluronic acid, tissue inhibitor of metalloproteinase-1, matrix matelloproteinase-7, connective tissue growth factor and lactate dehydrogenase activity, using commercially available ELISA. The cell pellet is re-suspended in PBS. Total cell counts are then obtained using a Hemavet hematology system (Drew Scientific, Wayne, Pa.) and differential cells counts are determined using Shandon cytospin (Thermo Scientific, Waltham, Mass.). Lung tissue is stained using hematoxylin and eosin (H&E) and trichrome and lung fibrosis.is determined by semiquantitative histopathological scoring (Ashcroft T. et al. J. Clin. Path. 1988; 41; 4, 467-470.) using light microscopy (10× magnification) and quantitative, computer-assisted densitometry of collagen in lung tissue sections using light microscopy. The data are plotted using Graphpad prism and statistical differences between groups determined.

Female C57BL/6 mice = assay: Mouse carbon tetrachloride (CCl4)-induced liver fibrosis model; assay type: in vivo; details: for collagen deposition in the liver as compared to the untreated group: CCl4-induced liver fibrosis
Method: Female C57BL/6 mice (Harlan, 20-25 g) housed 4/cage are given free access to food and water and allowed to acclimate for at least 7 days prior to test initiation. After the habituation phase, mice receive CCl4 (0.5-1.0 ml/kg body weight) diluted in corn oil vehicle (100 μL volume) via i.p. injection twice a week for 4-6 weeks. (Higazi, A. A. et al., Clin Exp Immunol. 2008 April; 152(1):163-73. Epub 2008 Feb. 14.). Control mice receive an equivalent volume of corn oil vehicle only. Test compound or vehicle is delivered po, ip or sc daily. At the end of the study (4-6 weeks after first i.p. injection of CCl4), mice are sacrificed using inhaled isoflurane and blood is drawn via cardiac puncture for subsequent analysis of ALT/AST levels. The liver is harvested, and one half of the liver is frozen at −80° C. and the other half is fixed in 10% neutral buffered formalin for histological assessment of liver fibrosis using light microscopy (10× magnification). Liver tissue homogenates are analyzed for collagen levels using Sircol (Biocolor Ltd, UK). Fixed Liver tissue is stained using hematoxylin and eosin (H&E) and trichrome and liver fibrosis is determined by quantitative, computer-assisted densitometry of collagen in liver tissue sections using light microscopy. Plasma and liver tissue lysates are also analyzed for concentrations of inflammatory, pro-fibrotic and tissue injury biomarkers including transforming growth factor β1, hyaluronic acid, tissue inhibitor of metalloproteinase-1, matrix matelloproteinase-7, connective tissue growth factor and lactate dehydrogenase activity, using commercially available ELISA. The resulting data are plotted using Graphpad prism and statistical differences between groups determined.

[1] = chronic setting (14 and 28 day), single bleomycin (1.5 units/kg) instillation
[2] = chronic setting, repeated bleomycin (3.0-5.0 units/kg/week) instillations
[3] = chronic setting (14-days only), single bleomycin instillation (3.0 units)

Row | Compound | IC50 (human LPA3) | efficacy at reducing lung tissue damage and fibrosis compared to pirfenidone (Female CD-1 mice; 14 day mouse bleomycin model) | MMP7 concentration in BALF (Female CD-1 mice; acute setting (3 day)) | TGFβ1 concentration in BALF (Female CD-1 mice; acute setting (3 day)) | hyaluronan concentration in BALF (Female CD-1 mice; acute setting (3 day)) | lactate dehydrogenase activity (LDH; tissue injury marker) in BALF (Female CD-1 mice; acute setting (3 day)) | tissue inhibitor of metalloproteinase-1 (TIMP-1; pro-fibrotic marker) concentration in BALF (Female CD-1 mice; acute setting (3 day)) | total protein in broncheoalveolar lavage fluid (BALF) (Female CD-1 mice; acute setting (3 day)) | fibrosis (Female CD-1 mice; [1]) | inflammatory cell influx (Female CD-1 mice; [1]) | mouse body weight (Female CD-1 mice; [1]) | lung fibrosis (Female CD-1 mice; [2]) | pulmonary resistance (Female CD-1 mice; [2]) | effect on collagen deposition compared to pirfenidone (Female C57BL/6 mice; 30 mg/kg, po, qd) | collagen deposition in the liver as compared to the untreated group (Female C57BL/6 mice) | lactate in the BALF (Female CD-1 mice; acute setting (3-day)) | fibrosis (Female CD-1 mice; [3]) | inflammatory cell influx (Female CD-1 mice; [3])
1 | Cc1noc(-c2ccc(-c3ccc(CC(=O)O)cc3)cc2)c1NC(=O)O[C@H](C)c1ccccc1Cl [Compound 1-88, (4′-{4-[(R)-1-(2-Chloro-phenyl)-ethoxycarbonylamino]-3-methyl-isoxazol-5-yl}-biphenyl-4-yl)-acetic acid] | 1 to 50 µM | superior efficacy to pirfenidone | significantly reduced | significantly reduced | significantly reduced | significantly reduced | significantly reduced | significantly reduced | decreased | decreased | maintained | decreased | decreased | same effect on collagen deposition as pirfenidone | significantly reduced |  |  | 
2 | Cc1noc(-c2ccc(-c3ccc(CC(=O)O)cc3)cc2)c1NC(=O)O[C@H](C)c1ccccc1 [Compound 1-115] | 1 to 50 µM |  |  |  |  |  | reduced | reduced |  |  |  |  |  |  | significantly reduced | reduced | decreased | decreased
